Data from paper PMC12454493, “Insight on novel sulfamoylphenyl pyrazole derivatives as anticancer carbonic anhydrase inhibitors” (Molecular Diversity, 2024).

Columns and labels:
Assay type in all cases: cell-based
CCRF-CEM = test: NCI-60 one-dose SRB screen (Leukemia); details: Homo sapiens, single dose 10 µM, 48 h, read-out: Growth inhibition percent (GI %)
Protocol: (§1) The National Cancer Institute (NCI) Developmental Therapeutic Program (www.dtp.nci.nih.gov) selected the 20 novel synthesized compounds 4a-e, 5a-e, 6a-c, 9a-e, 10 and 11 to test for their anticancer activity at a single dose of 10 µM using SRB assay. […] Supplementary Data S3; Table S1 presents the detailed screening results of the most promising compounds. The preliminary screening’s detailed results for the remaining compounds are elucidated in the (Supplementary Data S3; Table S2).
(§2) The guidelines of the Drug Evaluation Branch’s protocol at the NCI in Bethesda served as the basis for the in vitro anticancer screening assays. at one dose 10 µM against a panel of 60 cancer cell lines. The human tumor cell lines used belonged to nine panels: leukemia, melanoma, lung, colon, CNS, ovarian, renal, prostate and breast cancers using the sulforhodamine B (SRB) assay in a 48 h drug exposure protocol.

HL-60(TB) = test: NCI-60 one-dose SRB screen (Leukemia); details: Homo sapiens, single dose 10 µM, 48 h, read-out: Growth inhibition percent (GI %)
Protocol: as §1, §2

K-562 = test: NCI-60 one-dose SRB screen (Leukemia); details: Homo sapiens, K562, single dose 10 µM, 48 h, read-out: Growth inhibition percent (GI %)
Protocol: as §1, §2

MOLT-4 = test: NCI-60 one-dose SRB screen (Leukemia); details: Homo sapiens, single dose 10 µM, 48 h, read-out: Growth inhibition percent (GI %)
Protocol: as §1, §2

RPMI-8226 = test: NCI-60 one-dose SRB screen (Leukemia); details: Homo sapiens, single dose 10 µM, 48 h, read-out: Growth inhibition percent (GI %)
Protocol: as §1, §2

SR = test: NCI-60 one-dose SRB screen (Leukemia); details: Homo sapiens, single dose 10 µM, 48 h, read-out: Growth inhibition percent (GI %)
Protocol: as §1, §2

A549/ATCC = test: NCI-60 one-dose SRB screen (Non-Small Cell Lung Cancer); details: Homo sapiens, single dose 10 µM, 48 h, read-out: Growth inhibition percent (GI %)
Protocol: as §1, §2

EKVX = test: as above; details: Homo sapiens, single dose 10 µM, 48 h, read-out: Growth inhibition percent (GI %)
Protocol: as §1, §2

HOP-62 = test: as above; details: Homo sapiens, single dose 10 µM, 48 h, read-out: Growth inhibition percent (GI %)
Protocol: as §1, §2

HOP-92 = test: as above; details: Homo sapiens, single dose 10 µM, 48 h, read-out: Growth inhibition percent (GI %)
Protocol: as §1, §2

NCI-H226 = test: as above; details: Homo sapiens, single dose 10 µM, 48 h, read-out: Growth inhibition percent (GI %)
Protocol: as §1, §2

NCI-H23 = test: as above; details: Homo sapiens, single dose 10 µM, 48 h, read-out: Growth inhibition percent (GI %)
Protocol: as §1, §2

NCI-H322M = test: as above; details: Homo sapiens, single dose 10 µM, 48 h, read-out: Growth inhibition percent (GI %)
Protocol: as §1, §2

NCI-H460 = test: as above; details: Homo sapiens, single dose 10 µM, 48 h, read-out: Growth inhibition percent (GI %)
Protocol: as §1, §2

NCI-H522 = test: as above; details: Homo sapiens, single dose 10 µM, 48 h, read-out: Growth inhibition percent (GI %)
Protocol: as §1, §2

COLO 205 = test: NCI-60 one-dose SRB screen (Colon Cancer); details: Homo sapiens, single dose 10 µM, 48 h, read-out: Growth inhibition percent (GI %)
Protocol: as §1, §2

HCC-2998 = test: NCI-60 one-dose SRB screen (Colon Cancer); details: Homo sapiens, single dose 10 µM, 48 h, read-out: Growth inhibition percent (GI %)
Protocol: as §1, §2

HCT-116 = test: NCI-60 one-dose SRB screen (Colon Cancer); details: Homo sapiens, single dose 10 µM, 48 h, read-out: Growth inhibition percent (GI %)
Protocol: as §1, §2

HCT-15 = test: NCI-60 one-dose SRB screen (Colon Cancer); details: Homo sapiens, single dose 10 µM, 48 h, read-out: Growth inhibition percent (GI %)
Protocol: as §1, §2

HT29 = test: NCI-60 one-dose SRB screen (Colon Cancer); details: Homo sapiens, HT-29, single dose 10 µM, 48 h, read-out: Growth inhibition percent (GI %)
Protocol: as §1, §2

KM12 = test: NCI-60 one-dose SRB screen (Colon Cancer); details: Homo sapiens, single dose 10 µM, 48 h, read-out: Growth inhibition percent (GI %)
Protocol: as §1, §2

SW-620 = test: NCI-60 one-dose SRB screen (Colon Cancer); details: Homo sapiens, single dose 10 µM, 48 h, read-out: Growth inhibition percent (GI %)
Protocol: as §1, §2

SF-268 = test: NCI-60 one-dose SRB screen (CNS Cancer); details: Homo sapiens, single dose 10 µM, 48 h, read-out: Growth inhibition percent (GI %)
Protocol: as §1, §2

SF-295 = test: NCI-60 one-dose SRB screen (CNS Cancer); details: Homo sapiens, single dose 10 µM, 48 h, read-out: Growth inhibition percent (GI %)
Protocol: as §1, §2

SF-539 = test: NCI-60 one-dose SRB screen (CNS Cancer); details: Homo sapiens, single dose 10 µM, 48 h, read-out: Growth inhibition percent (GI %)
Protocol: as §1, §2

SNB-19 = test: NCI-60 one-dose SRB screen (CNS Cancer); details: Homo sapiens, single dose 10 µM, 48 h, read-out: Growth inhibition percent (GI %)
Protocol: as §1, §2

SNB-75 = test: NCI-60 one-dose SRB screen (CNS Cancer); details: Homo sapiens, single dose 10 µM, 48 h, read-out: Growth inhibition percent (GI %)
Protocol: as §1, §2

U251 = test: NCI-60 one-dose SRB screen (CNS Cancer); details: Homo sapiens, U-251, single dose 10 µM, 48 h, read-out: Growth inhibition percent (GI %)
Protocol: as §1, §2

LOX IMVI = test: NCI-60 one-dose SRB screen (Melanoma); details: Homo sapiens, single dose 10 µM, 48 h, read-out: Growth inhibition percent (GI %)
Protocol: as §1, §2

M14 = test: NCI-60 one-dose SRB screen (Melanoma); details: Homo sapiens, single dose 10 µM, 48 h, read-out: Growth inhibition percent (GI %)
Protocol: as §1, §2

Structure (SMILES): COc1ccc(-c2nn(-c3ccc(S(N)(=O)=O)cc3)cc2C(=O)NNC(N)=S)cc1 [Compound 9c, 2-[3-(4-Methoxyphenyl)-1-(4-sulfamoylphenyl)-1H-pyrazole-4-carbonyl] hydrazine-1-carbothioamide]
- inhibition at 10 µM (CCRF-CEM): < 5%
- inhibition at 10 µM (HL-60(TB)): < 5%
- inhibition at 10 µM (K-562): < 5%
- inhibition at 10 µM (MOLT-4): < 5%
- inhibition at 10 µM (RPMI-8226): < 5%
- inhibition at 10 µM (SR): < 5%
- inhibition at 10 µM (A549/ATCC): < 5%
- inhibition at 10 µM (EKVX): < 5%
- inhibition at 10 µM (HOP-62): < 5%
- inhibition at 10 µM (HOP-92): < 5%
- inhibition at 10 µM (NCI-H226): < 5%
- inhibition at 10 µM (NCI-H23): < 5%
- inhibition at 10 µM (NCI-H322M): < 5%
- inhibition at 10 µM (NCI-H460): < 5%
- inhibition at 10 µM (NCI-H522): 8.06%
- inhibition at 10 µM (COLO 205): < 5%
- inhibition at 10 µM (HCC-2998): < 5%
- inhibition at 10 µM (HCT-116): < 5%
- inhibition at 10 µM (HCT-15): < 5%
- inhibition at 10 µM (HT29): < 5%
- inhibition at 10 µM (KM12): < 5%
- inhibition at 10 µM (SW-620): < 5%
- inhibition at 10 µM (SF-268): < 5%
- inhibition at 10 µM (SF-295): < 5%
- inhibition at 10 µM (SF-539): < 5%
- inhibition at 10 µM (SNB-19): < 5%
- inhibition at 10 µM (SNB-75): < 5%
- inhibition at 10 µM (U251): < 5%
- inhibition at 10 µM (LOX IMVI): < 5%
- inhibition at 10 µM (M14): < 5%
